# Like-named read-outs stand apart in the source and are kept apart here.
# Biological target: T1, human serum albumin (HSA) (Homo sapiens, UniProt P02768)
# T1 construct: gene ALB; commercial human serum albumin purchased from Merck
# Experiment: fluorescence polarization titration, nonlinear […] fit
# Assay type: binding
# T1 sequence (P02768 25-609): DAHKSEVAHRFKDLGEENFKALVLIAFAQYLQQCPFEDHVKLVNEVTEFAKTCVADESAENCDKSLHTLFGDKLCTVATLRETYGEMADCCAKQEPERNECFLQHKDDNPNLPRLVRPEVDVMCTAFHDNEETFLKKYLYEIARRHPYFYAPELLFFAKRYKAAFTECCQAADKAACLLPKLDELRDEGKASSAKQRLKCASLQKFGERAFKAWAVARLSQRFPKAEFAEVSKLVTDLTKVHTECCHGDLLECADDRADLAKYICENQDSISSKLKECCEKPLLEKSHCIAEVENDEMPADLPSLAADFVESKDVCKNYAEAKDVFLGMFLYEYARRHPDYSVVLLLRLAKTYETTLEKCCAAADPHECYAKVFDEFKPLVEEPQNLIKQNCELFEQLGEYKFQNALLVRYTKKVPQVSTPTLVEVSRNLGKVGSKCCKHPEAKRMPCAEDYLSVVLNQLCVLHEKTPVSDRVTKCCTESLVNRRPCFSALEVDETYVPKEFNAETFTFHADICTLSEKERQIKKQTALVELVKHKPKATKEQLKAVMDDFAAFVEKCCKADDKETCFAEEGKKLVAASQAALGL
Compound,Kd [µM],"Kd (read-out: logK (1-HSA, Absence of 2) (converted)) [µM]"
"CC1(C)C(CO)=C(c2ccc3ccc4cccc5ccc2c3c45)C(C)(C)N1[O] [compound 1, 3-hydroxymethyl-1-oxyl-4-(pyren-1-yl)-2,2,5,5-tetramethyl-2,5-dihydro-1H-pyrrole radical]",1.41,
"CON1C(C)(C)C(CO)=C(c2ccc3ccc4cccc5ccc2c3c45)C1(C)C [compound 6, (1-methoxy-2,2,5,5-tetramethyl-4-(pyren-1-yl)-2,5-dihydro-1H-pyrrol-3-yl)methanol]",,0.331
